Data set [1] can be described thus: Stability of KIC or HMB in the rumen (incubation in rumen fluid). The data set is classed as in vitro ADME, steer. To be noted: for KIC or HMB in rumen fluid: 39° C. Here is the method: Rumen fluid was collected from a fistulated steer. After filtration and dilution (1:4) with an artificial saliva, 25ml of the solution was added to 50ml plastic tubes. Each tube was fitted with a one-way valve to allow gases to escape while not allowing air into the tube. Each tube was then gassed with CO2 and incubated at 39° C. After 30 min a solution of KIC or HMB was added to the tube in concentrations to simulate what would be present in the rumen of an animal consuming 0.05% of the diet as KIC or HMB. It was estimated that a 50 uM concentration would be attained in this case. At timed intervals 50 ul samples of this rumen fluid were taken and analyzed for KIC and HMB.

For data set [2], the system named is domestic animals. The data set is described as follows: Growth metabolism of domestic animals, HMB compared with KIC (summary statement). To be noted: in vivo.
Data set [3] has as its system pig red blood cells. Kind of data set: Pig red blood cell antibody titer in chicks (microtiter agglutination test). The data set is classed as in vivo, chicks (male leghorn). To be noted: 0.04% of the diet, 5 weeks; for Red blood cell titer, change from control: ** (HMB) significant at p < .02; for Red blood cell titer: pig red blood cells injected week 2, control 1.57. The protocol: (§1) To compare KIC and HMB as growth promotants, young male leghorn chicks were allotted to 12 battery (wire mess floors) pens consisting of 10 birds each. Treatments of control, HMB (0.04% of the diet) and KIC (0.04% of the diet) were assigned to the pens. Feed consumption was measured during the 5 week experiment. During week 2 of the experiment chicks were injected with 50 ul of a 20% suspension of pig red blood cells intraperitoneally.
(§2) Chicks were fed a diet adequate in all nutrients for leghorns of this age. HMB was a supplement to this diet at 0.04% of the diet (w/w).
(§3) At the end of the 5 week experiment chicks were decapitated and serum collected for pig red blood cells antibody titer determination. Titers to red blood cells were evaluated by a microtiter agglutination test (Kuhlman, et al.). Also, the Pectoralis major muscle (the major breast muscle) was dissected and weighed as a measure of muscle growth.

For data set [4] the following is noted: KIC fed as replacement for leucine; cited from earlier work.
The conditions of data set [5]: feeds for cattle and sheep; background statement; cited from earlier work.
Data set [6] concerns domestic animals. To be noted: cited from earlier work.
The subject of data set [7] is male leghorn chicks. The data set is described as follows: Feeding HMB to Poultry: growth, feed efficiency and breast muscle of chicks. The data set is classed as in vivo. To be noted: 0.04% of the diet; for Feed/gain / Breast muscle / Gain: 5 week data; for Feed/gain: control 2.30; for Breast muscle: control 2.84; for Gain: control 222; for Breast muscle, change from control / Feed/gain, change from control: ** (HMB) significant at p < .02. The protocol:
as §1, §2, §3

Data set [8] is described as follows: Hygroscopicity of HMB salts. The data set is classed as physicochemical.
The subject of data set [9] is lambs. The data set is described as follows: Feeding of HMB to Lambs--Trial 2. The class given is in vivo. The text has this: Animals and Experimental Design. Twenty-two lambs were housed individually in fiberglass pens (1.15 m^2) and randomly assigned to control or HMB diets. The control had nothing added to the diet while the HMB animals had 1 g of CaHMB supplemented to their diets each day. At the beginning of the experiment animals were weighed and ultrasound measurement made of the longissimus area and the amount of fat over the longissimus muscle. These measurements were made over the 12th rib area. Feed consumption was monitored. At the end of the experiment animals were weighed, feed consumption measured and the longissimus area and fat thickness measured again with the ultrasound apparatus. The gain in longissimus area and backfat were calculated from the initial value.
Composition of Basal Diet Fed to All Sheep
(§4) Trace mineral & vitamin premix

Data set [10] concerns lambs. Kind of data set: Feeding of HMB to Lambs--Trial 1. The class given is in vivo.
Source text: Animals and Experimental Design. Three sets of twin lambs were housed individually in fiberglass pens. Animals were randomly assigned to control or HMB diets, using Ca-HMB as the feed additive at a level of 0.5% of the basal diet.
Composition of Basal Diet Fed to All Sheep.
as §4

[11] abbreviates: 0 min after addition, rumen fluid diluted 1:4 with artificial saliva, initial KIC could only be estimated.
The mark [12] stands for this setting: 15 min after addition, rumen fluid diluted 1:4.
The mark [13] stands for this setting: 30 min after addition, rumen fluid diluted 1:4.
Where [14] appears, read: 60 min after addition, rumen fluid diluted 1:4.
Where [15] appears, read: 240 min after addition, rumen fluid diluted 1:4.
[16] abbreviates: 480 min after addition, rumen fluid diluted 1:4.

“Also recorded” adds a separate entry of the source.

In the case of `CC(C)CC(=O)C(=O)O` [KIC, α-keto-isocaproic acid, reference compound], the “stability in rumen environment (in words)” value in data set [1] was “rapidly destroyed by the rumen bacteria”. Besides, in [1] (setting [11]), the “KIC or HMB in rumen fluid” value was 30 µM. In addition, the “KIC or HMB in rumen fluid” value in data set [1] (setting [12]) was 15 µM. The “KIC or HMB in rumen fluid” value in data set [1] (setting [13]) came out at 4 µM. Further, the “KIC or HMB in rumen fluid” value in data set [1] (setting [14]) turned out to be 2 µM. The “KIC or HMB in rumen fluid” value in [1] (setting [15]) is 2 µM. For the same molecule, the “KIC or HMB in rumen fluid” value in data set [1] (setting [16]) was 1 µM. In addition, in data set [2], the “accumulation of body fat (in words)” value is reported as “slight tending for KIC to reduce the accumulation of body fat” and the “lean tissue development (in words)” value is “not obtainable with KIC”. In [3], the “Red blood cell titer, change from control” value stood at 68% and the “Red blood cell titer” value worked out at 2.65 dilution. The “amount of KIC required relative to nutritionally required amount of leucine” value in [4] was “two to three”. Moreover, the “rumen destruction (in words)” value in [5] is listed as “subject to partial rumen destruction”. The “effects on the immune system (in words)” value in data set [6] (U.S. Pat. No. 4,835,185) is “some apparently beneficial effects on the immune system”. Besides, the “cholesterol in meat, milk and eggs (in words)” value in [6] (U.S. Pat. Nos. 4,760,090 and 4,760,531) was “cholesterol reduction in meat, milk and eggs”. Further, the “consistency of beneficial effects (in words)” value in [6] (domestic animals, particularly ruminants) is reported as “not consistently obtainable”. In addition, the “milk production (in words)” value in data set [6] (lactating domestic animals, such as dairy cattle, U.S. Pat. No. 4,758,593) is listed as “the quantity of milk produced may be increased”. Moreover, the “egg production (in words)” value in [6] (laying chickens, U.S. Pat. No. 4,760,531) is given as “can also sometimes be increased”. In addition, in data set [6] (mature sheep, U.S. Pat. No. 4,760,090), the “wool production (in words)” value is given as “the amount of wool produced may also be increased”. Moreover, the “rates of weight gain and/or feed efficiencies (in words)” value in [6] (milligram amounts of KIC, U.S. Pat. Nos. 4,760,090 and 4,883,817) was “some increases in the rates of weight gain and/or feed efficiencies have been obtained”. Besides, the “muscle growth (in words)” value in data set [6] (previous research) is reported as “generally has not been found to stimulate muscle growth”. Moreover, in data set [6] (sheep, previous research), the “fat deposition (in words)” value is given as “decrease fat deposition”. Moreover, in [7], the Feed/gain was 2.24, the Breast muscle amounted to 2.94% and the Gain is 229 g. In addition, in data set [7] (5 weeks), the “Gain, change from control” value is recorded as 3.3%; the “Breast muscle, change from control” value is reported as 3.5%; the “Feed/gain, change from control” value was -2.5%.

On to `CC(C)(O)CC(=O)O` [Na-HMB], for which, in data set [8], the “hygroscopicity (in words)” value was “more hydroscopic than Ca-HMB”.

In the case of `CC(C)(O)CC(=O)O` [HMB, β-hydroxy-β-methyl butyric acid], the “stability in rumen environment (in words)” value in data set [1] is reported as “not being subject to appreciable rumen destruction; also recorded: not subject to significant rumen destruction; also recorded: quite stable in a rumen environment”. The “KIC or HMB in rumen fluid” value in data set [1] (setting [11]) is 60 µM. Moreover, the “KIC or HMB in rumen fluid” value in [1] (setting [12]) worked out at 76 µM. Further, the “KIC or HMB in rumen fluid” value in data set [1] (setting [13]) came to 81 µM. For the same molecule, in data set [1] (setting [14]), the “KIC or HMB in rumen fluid” value came out at 71 µM. Also, the “KIC or HMB in rumen fluid” value in data set [1] (setting [15]) was found to be 74 µM. Further, the “KIC or HMB in rumen fluid” value in data set [1] (setting [16]) was 74 µM. In data set [2], the “improving growth metabolism compared with KIC (in words)” value was “more effective for improving growth metabolism of domestic animals” and the “lean tissue development (in words)” value is “increase markedly the development of lean tissue”. In addition, in data set [3], the “Red blood cell titer, change from control” value turned out to be 107% and the “Red blood cell titer” value is listed as 3.25 dilution. In data set [9] (1 g CaHMB per day, control 4.41), this molecule came in with a Feed/gain of 4.28. The molecule further yielded a Total gain in data set [9] (1 g CaHMB per day, lambs from 60 lbs. to 100 lbs., control 38.5) of 40.5 lbs. In data set [9] (1 g CaHMB per day, ultrasound, control 2.08), the Loin area gain is 3.34 cm2. For the same molecule, the Back fat gain entry in [9] (1 g CaHMB per day, ultrasound, control .27) is “.19 cm”. In [9] (vs control), the “% Change, Feed/gain” value was -3%; the “% Change, Total gain” value is listed as “+6%”; the “performance and lean vs. fat gain (in words)” value was “increases preformance and increases lean vs. fat gain”. Further, in data set [9] (vs control, **P < .02 level), the “% Change, Back fat gain” value was -30% and the “% Change, Loin area gain” value came out at 60%. In data set [7], this molecule gave a Feed/gain of 2.17, a Breast muscle of 3.00% and a Gain of 229 g. In [7] (5 weeks), the “Gain, change from control” value worked out at 3.3%; the “comparison with KIC in all parameters (in words)” value was “superior in all parameters measured”; the “performance of growing chicks (in words)” value is “increased performance of growing chicks by increasing the rate of growth and by making more efficient use of feed for growth”; the “Breast muscle, change from control” value was 5.5%. Also, the “Feed/gain, change from control” value in data set [7] (5 weeks) is -5.8%. In addition, the Longissimus area in data set [10] (Ca-HMB 0.5% of the basal diet, control 2.1) was determined as 2.3 sq. in. In addition, the “Renal Fat %” value in [10] (Ca-HMB 0.5% of the basal diet, control 2.42) was 1.90 % of animal live weight. The same molecule had a Feed/gain in [10] (Ca-HMB 0.5% of the basal diet, control 3.89) of 3.60. For the same molecule, the “Back Fat (fat thickness over 12th rib)” value in [10] (Ca-HMB 0.5% of the basal diet, control .21) is “.12 in”. The Average daily gain entry in data set [10] (Ca-HMB 0.5% of the basal diet, control .287) is on record as “.296 kg/day”. In addition, the “lean tissue and fat growth (in words)” value in data set [10] (limited study, vs controls) is on record as “appeared to stimulate growth of lean tissues at the expense of fat”. In [10] (vs controls), the “% change due to HMB, Average daily gain” value was “+3%”; the “% change due to HMB, Feed/Gain” value is given as -7%; the “% change due to HMB, Longissimus area” value was “+10%”. Further, in [10] (vs controls, *P < 0.5), the “% change due to HMB, Back Fat” value is recorded as -43% and the “% change due to HMB, Renal Fat” value is -22%.

Values taken from US5028440A, “Method of raising meat producing animals to increase lean tissue development” (Iowa State University Research Foundation, Inc., priority 1990, dated 1991).
